Columns and labels:
Rattus norvegicus [1] = experiment: Effect on nitrogen balance in Wistar rat diabetic model assessed as residual fecal nitrogen at 10 mg/day, ip for 6 days measured 6 hrs after last dose relative to non-diabetic control; assay type: functional, Feces
Rattus norvegicus [2] = experiment: Effect on nitrogen balance in Wistar rat diabetic model assessed as retained nitrogen at 10 mg/day, ip for 6 days measured 6 hrs after last dose relative to non-diabetic control; assay type: functional
Rattus norvegicus [3] = experiment: Effect on nitrogen balance in Wistar rat diabetic model assessed as absorbed nitrogen at 10 mg/day, ip for 6 days measured 6 hrs after last dose relative to non-diabetic control; assay type: functional
Rattus norvegicus [4] = experiment: Effect on nitrogen balance in Wistar rat diabetic model assessed as residual urinary nitrogen at 10 mg/day, ip for 6 days measured 6 hrs after last dose relative to diabetic control; assay type: functional, Urine
Rattus norvegicus [5] = experiment: Effect on nitrogen balance in Wistar rat diabetic model assessed as retained nitrogen at 10 mg/day, ip for 6 days measured 6 hrs after last dose relative to diabetic control; assay type: functional
Rattus norvegicus [6] = experiment: Effect on nitrogen balance in Wistar rat diabetic model assessed as absorbed nitrogen at 10 mg/day, ip for 6 days measured 6 hrs after last dose relative to diabetic control; assay type: functional
Rattus norvegicus [7] = experiment: Effect on nitrogen balance in Wistar rat diabetic model assessed as residual urinary nitrogen at 10 mg/day, ip for 6 days measured 6 hrs after last dose relative to non-diabetic control; assay type: functional, Urine
Rattus norvegicus [8] = experiment: Effect on nitrogen balance in Wistar rat diabetic model assessed as residual fecal nitrogen at 10 mg/day, ip for 6 days measured 6 hrs after last dose relative to diabetic control; assay type: functional, Feces

**Q.** Which Activity (Rattus norvegicus [1]) does the source give for `CC(C)=CCC[C@](C)(O[C@@H]1O[C@H](CO[C@@H]2OC[C@H](O)[C@H](O)[C@H]2O)[C@@H](O)[C@H](O)[C@H]1O)[C@H]1CC[C@]2(C)[C@@H]1[C@H](O)C[C@@H]1[C@@]3(C)CC[C@H](O[C@@H]4O[C@H](CO)[C@@H](O)[C@H](O)[C@H]4O[C@@H]4O[C@H](CO)[C@@H](O)[C@H](O)[C@H]4O)C(C)(C)[C@@H]3CC[C@]12C` [GINSENOSIDE RB2] here?
**A.** Its Activity is 186%.

**Q.** And the Activity (Rattus norvegicus [2])?
**A.** The Activity was 313%.

**Q.** And the Activity (Rattus norvegicus [3])?
**A.** The Activity was 225%.

**Q.** What about the Activity (Rattus norvegicus [4]) of the same compound?
**A.** Its Activity is 75%.

**Q.** And the Activity (Rattus norvegicus [5])?
**A.** Its Activity is 415%.

**Q.** And the Activity (Rattus norvegicus [6])?
**A.** The Activity was 104%.

**Q.** And the Activity (Rattus norvegicus [7])?
**A.** Its Activity is 223%.

**Q.** And the Activity (Rattus norvegicus [8])?
**A.** The Activity was 93%.
